These results are taken from publication PMC10327491 (Nature microbiology, 2022).

In the assay the target is T1, BtSULT (Bacteroides thetaiotaomicron, UniProt Q8AAP8).
T1 sequence (Q8AAP8 1-368): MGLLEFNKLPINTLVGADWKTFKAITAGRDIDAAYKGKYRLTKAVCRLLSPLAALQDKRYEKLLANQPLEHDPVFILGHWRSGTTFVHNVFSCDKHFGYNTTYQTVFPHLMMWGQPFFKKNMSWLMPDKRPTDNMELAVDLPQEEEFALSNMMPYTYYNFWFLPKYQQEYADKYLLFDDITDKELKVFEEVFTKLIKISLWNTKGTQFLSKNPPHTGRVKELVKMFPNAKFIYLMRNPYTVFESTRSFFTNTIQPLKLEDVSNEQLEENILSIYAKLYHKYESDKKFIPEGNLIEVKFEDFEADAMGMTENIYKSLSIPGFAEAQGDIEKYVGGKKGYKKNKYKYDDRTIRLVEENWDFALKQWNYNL
Briefly: UPLC-MS of cholesterol sulfate formation. It is filed as biochemical. As to conditions: 100 uM PAPS, 50 uM cholesterol acceptor, pH 7, 37 °C; sulfonate donor.

Regarding `Nc1ncnc2c1ncn2[C@@H]1O[C@H](COP(=O)(O)OS(=O)(=O)O)[C@@H](OP(=O)(O)O)[C@H]1O` [adenosine 3'-phosphate-5'-phosphosulfate], the “UPLC-MS of cholesterol sulfate formation” value is listed as “BtSULT encodes a sulfotransferase that utilizes PAPS to sulfonate Ch”.
